Results taken from BigSolDB 2.1.

O=C(O)c1cc(O)c(O)c(O)c1
solubility (mole fraction)
Conditions | 293.15 K | 298.15 K | 303.15 K | 308.15 K | 313.15 K | 318.15 K
in methanol | 0.0639 | 0.0672 | 0.07 | 0.0721 | 0.0755 | 0.0768
in water | 0.00101 | 0.00135 | 0.00171 | 0.00227 | 0.00289 | 0.0038
